Measured values: the supplement of paper PMC11451515

System: SEM cells
Assay: cell viability relative to DMSO control; higher = less cytotoxic
Settings: 48 h
Method in brief: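 Cells were incubated for 48 h at 37°C before CellTiter-Glo One luminescence was read. The cells were NOMO1 or SEM (500 cells/well) or P12-Ichikawa (1000 cells/well) leukemia cells, adapted for at least four passages in each medium and seeded in 1536-well plates (5 μl). Dosing used library compounds in DMSO applied by pin over 11 threefold points, 47 μM to 0.79 nM. Viability is the per-plate percentage of DMSO wells, with cell-free wells as background.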

[1] = HPLM + 10% dialyzed FBS, 0.000781 µM
[2] = HPLM + 10% dialyzed FBS, 0.00234 µM
[3] = HPLM + 10% dialyzed FBS, 0.00702 µM
[4] = HPLM + 10% dialyzed FBS, 0.0211 µM
[5] = HPLM + 10% dialyzed FBS, 0.0632 µM
[6] = HPLM + 10% dialyzed FBS, 0.19 µM
[7] = HPLM + 10% dialyzed FBS, 0.569 µM
[8] = HPLM + 10% dialyzed FBS, 1.71 µM
[9] = HPLM + 10% dialyzed FBS, 5.12 µM
[10] = HPLM + 10% dialyzed FBS, 15.4 µM
[11] = HPLM + 10% dialyzed FBS, 46.1 µM
[12] = RPMI 5 mM glucose + 10% FBS, 0.000781 µM
[13] = RPMI 5 mM glucose + 10% FBS, 0.00234 µM
[14] = RPMI 5 mM glucose + 10% FBS, 0.00702 µM
[15] = RPMI 5 mM glucose + 10% FBS, 0.0211 µM
[16] = RPMI 5 mM glucose + 10% FBS, 0.0632 µM
[17] = RPMI 5 mM glucose + 10% FBS, 0.19 µM
[18] = RPMI 5 mM glucose + 10% FBS, 0.569 µM
[19] = RPMI 5 mM glucose + 10% FBS, 1.71 µM
[20] = RPMI 5 mM glucose + 10% FBS, 5.12 µM
[21] = RPMI 5 mM glucose + 10% FBS, 15.4 µM
[22] = RPMI 5 mM glucose + 10% FBS, 46.1 µM
[23] = RPMI 5 mM glucose + 10% dialyzed FBS, 0.000781 µM
[24] = RPMI 5 mM glucose + 10% dialyzed FBS, 0.00234 µM
[25] = RPMI 5 mM glucose + 10% dialyzed FBS, 0.00702 µM
[26] = RPMI 5 mM glucose + 10% dialyzed FBS, 0.0211 µM
[27] = RPMI 5 mM glucose + 10% dialyzed FBS, 0.0632 µM
[28] = RPMI 5 mM glucose + 10% dialyzed FBS, 0.19 µM
[29] = RPMI 5 mM glucose + 10% dialyzed FBS, 0.569 µM
[30] = RPMI 5 mM glucose + 10% dialyzed FBS, 1.71 µM
[31] = RPMI 5 mM glucose + 10% dialyzed FBS, 5.12 µM
[32] = RPMI 5 mM glucose + 10% dialyzed FBS, 15.4 µM
[33] = RPMI 5 mM glucose + 10% dialyzed FBS, 46.1 µM

c1ccc(-c2nn3c(c2-c2ccnc4cc(OCCN5CCOCC5)ccc24)CCC3)nc1
cell viability [1]: 77.4% | cell viability [2]: 106% | cell viability [3]: 121% | cell viability [4]: 126% | cell viability [5]: 126% | cell viability [6]: 129% | cell viability [7]: 115% | cell viability [8]: 128% | cell viability [9]: 145% | cell viability [10]: 127% | cell viability [11]: 110% | cell viability [12]: 102% | cell viability [13]: 125% | cell viability [14]: 132% | cell viability [15]: 125% | cell viability [16]: 143% | cell viability [17]: 134% | cell viability [18]: 122% | cell viability [19]: 138% | cell viability [20]: 144% | cell viability [21]: 123% | cell viability [22]: 91.1% | cell viability [23]: 68.3% | cell viability [24]: 122% | cell viability [25]: 137% | cell viability [26]: 132% | cell viability [27]: 135% | cell viability [28]: 127% | cell viability [29]: 125% | cell viability [30]: 131% | cell viability [31]: 117% | cell viability [32]: 129% | cell viability [33]: 82.2%

NC/1=N/C(=O)N(/C=C1)[C@H]2CC[C@@H](CO)O2
cell viability [1]: 78.3% | cell viability [2]: 95% | cell viability [3]: 93.8% | cell viability [4]: 103% | cell viability [5]: 101% | cell viability [6]: 104% | cell viability [7]: 109% | cell viability [8]: 121% | cell viability [9]: 103% | cell viability [10]: 23% | cell viability [11]: 72.2% | cell viability [12]: 71.7% | cell viability [13]: 88.8% | cell viability [14]: 103% | cell viability [15]: 92% | cell viability [16]: 88.3% | cell viability [17]: 101% | cell viability [18]: 93.4% | cell viability [19]: 96.1% | cell viability [20]: 110% | cell viability [21]: 17% | cell viability [22]: 80.1% | cell viability [23]: 68.7% | cell viability [24]: 87.4% | cell viability [25]: 94.3% | cell viability [26]: 94.3% | cell viability [27]: 102% | cell viability [28]: 88.1% | cell viability [29]: 88.6% | cell viability [30]: 98.4% | cell viability [31]: 78% | cell viability [32]: 17.2% | cell viability [33]: 53.4%

CC(C)(O)CNc1nc(Nc2ccnc(C(F)(F)F)c2)nc(-c2cccc(C(F)(F)F)n2)n1
cell viability [1]: 106% | cell viability [2]: 89% | cell viability [3]: 101% | cell viability [4]: 105% | cell viability [5]: 91.3% | cell viability [6]: 109% | cell viability [7]: 110% | cell viability [8]: 93.5% | cell viability [9]: 67.2% | cell viability [10]: 33.1% | cell viability [11]: 24.6% | cell viability [12]: 99.5% | cell viability [13]: 84.7% | cell viability [14]: 119% | cell viability [15]: 107% | cell viability [16]: 80.7% | cell viability [17]: 122% | cell viability [18]: 117% | cell viability [19]: 64.7% | cell viability [20]: 31.3% | cell viability [21]: 15.8% | cell viability [22]: 14.6% | cell viability [23]: 105% | cell viability [24]: 89.8% | cell viability [25]: 112% | cell viability [26]: 107% | cell viability [27]: 106% | cell viability [28]: 114% | cell viability [29]: 122% | cell viability [30]: 88.7% | cell viability [31]: 44.6% | cell viability [32]: 21.4% | cell viability [33]: 14.7%

CCN(CC)CCOC1=CC=C(NC2=NC=C3\C=C(/C(=O)N(C)C3=N2)C4=C(Cl)C=CC=C4Cl)C=C1
cell viability [1]: 94.9% | cell viability [2]: 101% | cell viability [3]: 105% | cell viability [4]: 74.5% | cell viability [5]: 67.9% | cell viability [6]: 58.4% | cell viability [7]: 56.8% | cell viability [8]: 56% | cell viability [9]: 10.9% | cell viability [10]: 6.61% | cell viability [11]: 4.15% | cell viability [12]: 78.3% | cell viability [13]: 67.6% | cell viability [14]: 74.7% | cell viability [15]: 52.1% | cell viability [16]: 48.6% | cell viability [17]: 44.8% | cell viability [18]: 38.2% | cell viability [19]: 45.8% | cell viability [20]: 11.7% | cell viability [21]: 7.2% | cell viability [22]: 2.88% | cell viability [23]: 92.5% | cell viability [24]: 102% | cell viability [25]: 106% | cell viability [26]: 68.3% | cell viability [27]: 76.1% | cell viability [28]: 69.1% | cell viability [29]: 61.1% | cell viability [30]: 59.8% | cell viability [31]: 13.5% | cell viability [32]: 8.59% | cell viability [33]: 3.75%

CNC(=O)c1cc(Oc2ccc(NC(=O)Nc3cc(C(C)(C)C)nn3-c3ccc4ncccc4c3)c(F)c2)ccn1
cell viability [1]: 98.3% | cell viability [2]: 113% | cell viability [3]: 118% | cell viability [4]: 113% | cell viability [5]: 116% | cell viability [6]: 102% | cell viability [7]: 80.5% | cell viability [8]: 66.6% | cell viability [9]: 61.7% | cell viability [10]: 52.2% | cell viability [11]: 41.6% | cell viability [12]: 108% | cell viability [13]: 114% | cell viability [14]: 107% | cell viability [15]: 115% | cell viability [16]: 122% | cell viability [17]: 99.2% | cell viability [18]: 85.3% | cell viability [19]: 61.3% | cell viability [20]: 50.5% | cell viability [21]: 39.2% | cell viability [22]: 26.2%

CCOP(=O)(OCC)C(C)NC(=O)N(CCCl)N=O (stereo not drawn)
cell viability [1]: 101% | cell viability [2]: 109% | cell viability [3]: 125% | cell viability [4]: 114% | cell viability [5]: 126% | cell viability [6]: 128% | cell viability [7]: 129% | cell viability [8]: 122% | cell viability [9]: 119% | cell viability [10]: 127% | cell viability [11]: 94.9% | cell viability [12]: 90.7% | cell viability [13]: 98.1% | cell viability [14]: 98.7% | cell viability [15]: 104% | cell viability [16]: 101% | cell viability [17]: 111% | cell viability [18]: 78.4% | cell viability [19]: 95.5% | cell viability [20]: 87.1% | cell viability [21]: 84.6% | cell viability [22]: 74.4% | cell viability [23]: 108% | cell viability [24]: 97% | cell viability [25]: 116% | cell viability [26]: 122% | cell viability [27]: 112% | cell viability [28]: 127% | cell viability [29]: 127% | cell viability [30]: 137% | cell viability [31]: 107% | cell viability [32]: 103% | cell viability [33]: 81.2%

O=C(Oc1ccc([N+](=O)[O-])cc1)N1CCN(Cc2cccc(Oc3ccccc3)c2)CC1
cell viability [1]: 94.6% | cell viability [2]: 100% | cell viability [3]: 93.4% | cell viability [4]: 106% | cell viability [5]: 103% | cell viability [6]: 64.4% | cell viability [7]: 120% | cell viability [8]: 116% | cell viability [9]: 107% | cell viability [10]: 107% | cell viability [11]: 121% | cell viability [12]: 90.4% | cell viability [13]: 86.1% | cell viability [14]: 99.5% | cell viability [15]: 106% | cell viability [16]: 93.6% | cell viability [17]: 67.1% | cell viability [18]: 111% | cell viability [19]: 106% | cell viability [20]: 102% | cell viability [21]: 95.9% | cell viability [22]: 101% | cell viability [23]: 112% | cell viability [24]: 108% | cell viability [25]: 108% | cell viability [26]: 125% | cell viability [27]: 115% | cell viability [28]: 60.9% | cell viability [29]: 109% | cell viability [30]: 108% | cell viability [31]: 114% | cell viability [32]: 110% | cell viability [33]: 121%

CC1=C(C)C2=C(S1)[N]3C(=NN=C3[C@H](CC(=O)OC(C)(C)C)/N=C2/C4=CC=C(Cl)C=C4)C
cell viability [1]: 98.5% | cell viability [2]: 115% | cell viability [3]: 107% | cell viability [4]: 105% | cell viability [5]: 104% | cell viability [6]: 43.2% | cell viability [7]: 11.3% | cell viability [8]: 17.7% | cell viability [9]: 6.74% | cell viability [10]: 4.33% | cell viability [11]: 1.71% | cell viability [12]: 100% | cell viability [13]: 108% | cell viability [14]: 106% | cell viability [15]: 102% | cell viability [16]: 103% | cell viability [17]: 67.7% | cell viability [18]: 13.7% | cell viability [19]: 18.7% | cell viability [20]: 7.27% | cell viability [21]: 4.94% | cell viability [22]: 1.39% | cell viability [23]: 108% | cell viability [24]: 103% | cell viability [25]: 102% | cell viability [26]: 78.7% | cell viability [27]: 94.7% | cell viability [28]: 53.9% | cell viability [29]: 17.5% | cell viability [30]: 15.8% | cell viability [31]: 5.05% | cell viability [32]: 3.64% | cell viability [33]: 1.14%
